# Measurements: patent US20050250725A1, “Regulation of the P21 gene and uses thereof” (priority 2000, published 2005)
# Legend:
# [1] = tested on: renal p21 expression; test: Renal p21 expression after cisplatin administration; format: in vivo
# Method: The present invention examined the effect of p21 in protecting the renal function from cisplatin induced damage. An increase in renal p21 expression was observed after ischemia-reperfusion, urinary tract obstruction and cisplatin administration (FIG. 7). Further, to assess the significance of p21 in renal function, blood urea nitrogen was measured in mice with and without p21 gene subsequent to cisplatin administration. It was observed that the blood urea nitrogen for mice lacking the p21 gene was retained to a higher degree than the mice with p21 gene (FIG. 8).
# [2] = tested on: renal cells; format: cell-based
# Method: Percent apoptosis is also indicated.
# Next, the cytoprotective effect of histone deacetylase inhibitors such as phenylbutyrate on renal cells was examined. Cells were control cells, or exposed to cisplatin (50 uM) alone, to phenylbutyrate (100 uM) or to phenybutyrate and cisplatin.
compound,measurement,setting,value
N.N.[Cl][Pt][Cl] [cisplatin],renal p21 expression,[1],increase
phenylbutyrate,protection from cisplatin-induced apoptosis,"[2]; prior exposure to phenylbutyrate, then cisplatin",protected from apoptosis
same,distribution of DNA,[2]; renal cells exposed to phenylbutyrate 100 uM and cisplatin 50 uM,normal distribution of DNA
